From patent publication US10874743B2, “IRAK degraders and uses thereof” (Kymera Therapeutics, Inc., priority 2017, dated 2020)

Columns and labels:
IRAK4 = target: T1, IRAK4 (Homo sapiens, UniProt Q9NWZ3); assay: OCI-LY-10 MSD assay for IRAK4 DC50; type: cell-based; set-up: endogenous in cells; host or cells: OCI-LY10; conditions: OCI-LY10 cells, 4 hr incubation, concentration required to degrade 50% of protein
T1 sequence (Q9NWZ3 1-460): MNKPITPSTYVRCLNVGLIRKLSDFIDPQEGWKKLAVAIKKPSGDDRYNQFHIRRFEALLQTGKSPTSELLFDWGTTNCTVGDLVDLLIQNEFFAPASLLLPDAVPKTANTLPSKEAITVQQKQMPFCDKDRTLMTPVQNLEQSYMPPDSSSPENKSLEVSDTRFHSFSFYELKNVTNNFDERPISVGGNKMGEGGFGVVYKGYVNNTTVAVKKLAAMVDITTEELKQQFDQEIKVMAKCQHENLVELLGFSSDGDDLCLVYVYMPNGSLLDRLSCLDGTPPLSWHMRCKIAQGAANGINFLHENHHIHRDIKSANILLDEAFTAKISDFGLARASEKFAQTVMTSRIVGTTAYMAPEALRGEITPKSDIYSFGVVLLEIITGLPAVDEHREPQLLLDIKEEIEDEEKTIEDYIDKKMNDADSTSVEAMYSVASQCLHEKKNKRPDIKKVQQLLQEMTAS
How it was run: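 OCI-Ly10 cells were exposed to compound for 4 hr across a 3-fold, 8-point dilution series. Lysates were made in RIPA buffer, and IRAK4 remaining was measured by MSD sandwich immunoassay with anti-IRAK4 capture and detection antibodies. DC50 was taken from a four-parameter logistic fit.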

OCI-LY10 cells = assay: OCI-LY-10 CTG cell viability assay (EC50); type: cell-based; conditions: Homo sapiens, 96 h, CellTiter-Glo cell viability, 4 days incubation, top concentration 10 μM, read-out: OCI-LY10 IRAK4 EC50
How it was run: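 OCI-LY10 cells were exposed to a 9-dose, 1:3 series (top 10 μM, 0.2% DMSO) for 4 days at 37 °C. Viability was measured by CellTiter-Glo luminescence, and EC50 came from a three-parameter logistic fit.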

SMILES	DC50 (IRAK4) [nM]	EC50 (OCI-LY10 cells) [nM]
O=C1CCC(n2c(=O)oc3c(CCCOCCCNC(=O)c4ccc(-n5cc(NC(=O)c6coc(-c7ccnc(NCC8CC8)c7)n6)c(C(F)F)n5)cc4)cccc32)C(=O)N1 (stereo not shown) [I-475]	< 50	< 50
Cn1cc(NC(=O)c2coc(-c3ccnc(NCC(F)(F)F)c3)n2)c(CNCCOCCOCCOCCOCCOCCNc2cccc3c2C(=O)N(C2CCC(=O)NC2=O)C3=O)n1 (stereo not shown) [I-522]	> 1000	> 1000
Cn1c(=O)n(C2CCC(=O)NC2=O)c2ccc(CCCOCCOCCNC(=O)c3ccc(-n4cc(NC(=O)c5coc(-c6ccnc(NCC7CC7)c6)n5)c(C(F)F)n4)cn3)cc21 (stereo not shown) [I-461]	< 50	< 50
Cn1c(=O)n(C2CCC(=O)NC2=O)c2ccc(CCCN3CCO[C@@H](CNCc4ccc(-n5cc(NC(=O)c6coc(-c7ccnc(NCC(F)(F)F)c7)n6)c(C(F)F)n5)cc4)C3)cc21 (stereo partly shown) [I-614]	50 to 100	100 to 500
Cn1c(=O)n(C2CCC(=O)NC2=O)c2cccc(CCCN3CCO[C@H](CNCc4ccc(-n5cc(NC(=O)c6coc(-c7ccnc(NCC(F)(F)F)c7)n6)c(C(N)=O)n5)cc4)C3)c21 (stereo partly shown) [I-593]	< 50	100 to 500
NC(=O)c1nn(-c2ccc(CNCCOCCOCCOC(=O)NCc3ccc4c(c3)CN(C3CCC(=O)NC3=O)C4=O)cc2)cc1NC(=O)c1coc(-c2ccnc(NCC(F)(F)F)c2)n1 (stereo not shown) [I-579]	100 to 500	> 1000
Cn1c(=O)n(C2CCC(=O)NC2=O)c2ccc(CCCOCCNCc3ccc(-n4cc(NC(=O)c5coc(-c6ccnc(NCC(F)(F)F)c6)n5)c(C(F)F)n4)cc3)cc21 (stereo not shown) [I-532]	< 50	500 to 1000
Cn1c(=O)n(C2CCC(=O)NC2=O)c2ccc(CNCCCCCNCc3ccc(-n4cc(NC(=O)c5coc(-c6ccnc(NCC7CC7)c6)n5)c(C(F)F)n4)cc3)cc21 (stereo not shown) [I-542]	< 50	< 50
CN(C[C@@H]1CN(CCCc2ccc3c(c2)n(C)c(=O)n3C2CCC(=O)NC2=O)CCO1)C(=O)c1ccc(-n2cc(NC(=O)c3coc(-c4ccnc(NCC5CC5)c4)n3)c(C(F)F)n2)cc1 (stereo partly shown) [I-488]	< 50	< 50
O=C1CCC(N2C[C@H](c3cccc(C#CCN4CCO[C@@H](CNCc5ccc(-n6cc(NC(=O)c7coc(-c8ccnc(NCC9CC9)c8)n7)c(C(F)F)n6)cc5)C4)c3)OC2=O)C(=O)N1 (stereo partly shown) [I-584]	< 50	50 to 100
CN(CCCCOCCCCc1ccc2c(c1)n(C)c(=O)n2C1CCC(=O)NC1=O)C(=O)c1ccc(-n2cc(NC(=O)c3coc(-c4ccnc(NCC5CC5)c4)n3)c(C(F)F)n2)cc1 (stereo not shown) [I-491]	50 to 100	< 50
Cn1c(=O)n([C@@H]2CCC(=O)NC2=O)c2cccc(CCCOCCOCCNCc3ccc(-n4cc(NC(=O)c5coc(-c6ccnc(NCC(F)(F)F)c6)n5)c(C(N)=O)n4)cc3)c21 [I-689]	< 50	500 to 1000
CC(C)(CCOCCCc1cccc2c1oc(=O)n2C1CCC(=O)NC1=O)NC(=O)c1ccc(-n2cc(NC(=O)c3coc(-c4ccnc(NCC5CC5)c4)n3)c(C(F)F)n2)cc1 (stereo not shown) [I-478]	50 to 100	100 to 500
Cn1c(=O)n(C2CCC(=O)NC2=O)c2ccc(CNC(=O)COCCNCc3ccc(-n4cc(NC(=O)c5coc(-c6ccnc(NCC7CC7)c6)n5)c(C(F)F)n4)cc3)cc21 (stereo not shown) [I-543]	< 50	< 50
CN(CCCOCCCc1cccc2c1oc(=O)n2C1CCC(=O)NC1=O)C(=O)c1ccc(-n2cc(NC(=O)c3coc(-c4ccnc(NCC(F)(F)F)c4)n3)c(C(N)=O)n2)cc1 (stereo not shown) [I-495]	< 50	500 to 1000
Cn1c(=O)n(C2CCC(=O)NC2=O)c2ccc(CN3CCN(CCO[C@H]4C[C@H](NC(=O)c5ccc(-n6cc(NC(=O)c7coc(-c8ccnc(NCC9CC9)c8)n7)c(C(F)F)n6)cc5)C4)CC3)cc21 (stereo partly shown) [I-506]	< 50	< 50
O=C1CCC(n2c(=O)oc3c(CCCOCCCNC(=O)c4ccc(-n5cc(NC(=O)c6coc(-c7ccnc(NCC8CC8)c7)n6)c(C(F)F)n5)cn4)cccc32)C(=O)N1 (stereo not shown) [I-479]	< 50	< 50
Cn1c(=O)n(C2CCC(=O)NC2=O)c2ccc(CCCOCCOC3CCN(C(=O)c4ccc(-n5cc(NC(=O)c6coc(-c7ccnc(NCC8CC8)c7)n6)c(C(F)F)n5)cc4)CC3)cc21 (stereo not shown) [I-517]	< 50	> 1000

SMILES	DC50 (IRAK4) [nM]	EC50 (OCI-LY10 cells) [nM]
O=C1CCC(N2Cc3cc(CNC(=O)OCCNCc4ccc(-n5cc(NC(=O)c6coc(-c7ccnc(NCC8CC8)c7)n6)c(C(F)F)n5)cc4)ccc3C2=O)C(=O)N1 (stereo not shown) [I-558]	< 50	< 50
CN(C[C@H]1CN(CCCc2ccc3c(c2)n(C)c(=O)n3C2CCC(=O)NC2=O)CCO1)C(=O)c1ccc(-n2cc(NC(=O)c3coc(-c4ccnc(NCC(F)(F)F)c4)n3)c(C(F)F)n2)cc1 (stereo partly shown) [I-487]	< 50	50 to 100
Cn1cc(NC(=O)c2coc(-c3ccnc(NCC(F)(F)F)c3)n2)c(-c2cncc(C(=O)NCCOCCOCCCc3cccc4c3n(C)c(=O)n4C3CCC(=O)NC3=O)c2)n1 (stereo not shown) [I-472]	> 1000	> 1000
O=C1CCC(n2c(=O)n(CCOCCOCCNCc3ccc(-n4cc(NC(=O)c5coc(-c6ccnc(NCC7CC7)c6)n5)c(C(F)F)n4)cc3)c3ccccc32)C(=O)N1 (stereo not shown) [I-552]	< 50	< 50
Cn1c(=O)n(C2CCC(=O)NC2=O)c2ccc(CNC(=O)OCCCNCc3ccc(-n4cc(NC(=O)c5coc(-c6ccnc(NCC7CC7)c6)n5)c(C(F)F)n4)cc3)cc21 (stereo not shown) [I-545]	< 50	< 50
Cn1c(=O)n(C2CCC(=O)NC2=O)c2ccc(CCCNCC3COC4C(CNCc5ccc(-n6cc(NC(=O)c7coc(-c8ccnc(NCC9CC9)c8)n7)c(C(F)F)n6)cc5)COC34)cc21 (stereo not shown) [I-537]	< 50	< 50
Cn1c(=O)n(C2CCC(=O)NC2=O)c2ccc(CCCOCCOCCNCc3ccc(-n4cc(NC(=O)c5coc(-c6ccnc(NCC7CC7)c6)n5)c(C(F)F)n4)cc3F)cc21 (stereo not shown) [I-539]	500 to 1000	< 50
Cn1c(=O)n([C@@H]2CCC(=O)NC2=O)c2ccc(CCCCOCCCCNCc3ccc(-n4cc(NC(=O)c5coc(-c6ccnc(NCC7CC7)c6)n5)c(C(F)F)n4)cc3)cc21 (single isomer, unassigned) [I-700]	< 50	50 to 100
NC(=O)c1nn(-c2ccc(CNCCCOCCCc3ccc4c(c3)oc(=O)n4C3CCC(=O)NC3=O)cc2)cc1NC(=O)c1coc(-c2ccnc(NCC(F)(F)F)c2)n1 (stereo not shown) [I-567]	< 50	500 to 1000
Cn1c(=O)n([C@H]2CCC(=O)NC2=O)c2cccc(CCCOCCOCCNCc3ccc(-n4cc(NC(=O)c5coc(-c6ccnc(NCC(F)(F)F)c6)n5)c(C(N)=O)n4)cc3)c21 [I-690, N-[3-carbamoyl-1-[4-[[2-[2-[3-[(1S)-1-(2,6-dioxo-3-piperidyl)-3-methyl-2-oxo-benzimidazol-4-yl]propoxy]ethoxy]ethylamino]methyl]phenyl]pyrazol-4-yl]-2-[2-(2,2,2-trifluoroethylamino)-4-pyridyl]oxazole-4-carboxamide]	< 50	> 1000
Cn1c(=O)n(C2CCC(=O)NC2=O)c2ccc(CNCCOCCNCc3ccc(-n4cc(NC(=O)c5coc(-c6ccnc(NCC7CC7)c6)n5)c(C(F)F)n4)cc3)cc21 (stereo not shown) [I-684, 2-[2-(cyclopropylmethylamino)-4-pyridyl]-N-[3-(difluoromethyl)-1-[4-[[2-[2-[[1-(2,6-dioxo-3-piperidyl)-3-methyl-2-oxo-benzimidazol-5-yl]methylamino]ethoxy]ethylamino]methyl]phenyl]pyrazol-4-yl]oxazole-4-carboxamide]	< 50	< 50
Cn1c(=O)n(C2CCC(=O)NC2=O)c2ccc(CCCN3CCO[C@H](CNCc4ccc(-n5cc(NC(=O)c6coc(-c7ccnc(NCC(F)(F)F)c7)n6)c(C(N)=O)n5)cc4)C3)cc21 (stereo partly shown) [I-572]	< 50	100 to 500
Cn1c(=O)n(C2CCC(=O)NC2=O)c2ccc(CCCOCCCNC(=O)c3ccc(-n4cc(NC(=O)c5coc(-c6ccnc(NCC7CC7)c6)n5)c(C(F)F)n4)cc3)cc21 (stereo not shown) [I-459]	< 50	< 50
CN[C@@H](C)C(=O)N[C@H](C(=O)N1Cc2cc(OCCOCCOCCOCCOCCNCc3nn(C)cc3NC(=O)c3coc(-c4ccnc(NCC(F)(F)F)c4)n3)ccc2C[C@H]1C(=O)N[C@@H]1CCCc2ccccc21)C(C)(C)C [I-682]	> 1000	> 1000
CN1CCN(C(=O)c2nn(-c3ccc(CNCCCCOCCCCc4ccc5c(c4)n(C)c(=O)n5C4CCC(=O)NC4=O)cc3)cc2NC(=O)c2coc(-c3ccnc(NCC(F)(F)F)c3)n2)CC1 (stereo not shown) [I-559]	> 1000	500 to 1000
CN[C@@H](C)C(=O)N[C@H](C(=O)N1CCC[C@H]1c1nc(C(=O)c2cccc(OCCOCCOCCOCCOCCOCCNCc3ccc(-n4cc(NC(=O)c5coc(-c6ccnc(NCC7CC7)c6)n5)c(C(F)F)n4)cc3)c2)cs1)C1CCCCC1 [I-553]	500 to 1000	> 1000
Cn1c(=O)n(C2CCC(=O)NC2=O)c2ccc(CCCOCCCNCc3ccc(-n4cc(NC(=O)c5coc(-c6ccnc(NCC(F)(F)F)c6)n5)c(C(F)F)n4)cc3)cc21 (stereo not shown) [I-534]	< 50	> 1000
